The values below come from patent US8158674B2, “Chalcogenoxanthylium dyes for purging blood pathogens and for photodynamic therapy” (The Research Foundation of State University of New York, priority 2004, dated 2012).

The structures appear in SMILES notation. Where “and” joins values, the source holds several entries; their conditions need not be identical. Equal entries are not always repeated. Entries after “also recorded” stand apart in the source; their conditions may differ. Where two headings read alike, the source gives them in different places.

Data set [1] is described as follows: Quantum yield for generation of singlet oxygen (direct luminescence detection, MeOH). It counts as physicochemical. Conditions: rose bengal as a standard.
Data set [2] is described as follows: Fluorescence quantum yields and radiative lifetimes. Conditions: for Quantum yield for fluorescence φF ± sd: rhodamine 6G as a standard. It counts as physicochemical.
Data set [3] relates to extracellular VSV. It counts as cell-based.
Data set [4] relates to intracellular VSV. It counts as cell-based.
Data set [5] has as its target Pgp in CR1R12 cells (Cricetulus griseus, UniProt P21448). The data set is described as follows: Calcein AM uptake, CR1R12. It counts as cell-based, Chinese hamster. Conditions: dye 1×10−5 M for 2 h in the dark.
For data set [6], the system named is AUXB1 cells. In words: Calcein AM uptake, AUXB1. Type of data set: cell-based, Chinese hamster. Conditions: higher concentrations of dye plus light exposure.
For data set [7] the following is noted: pH 6.
Data set [8] concerns CR1R12 cells.
Description: (§1) Cell lines were maintained in passage culture on 60-mm diameter polystyrene dishes (Corning Costar, Corning, N.Y.) in 4.0 mL Minimum Essential Medium (α-MEM) supplemented with 10% fetal bovine serum (FBS), 50 units mL^−1 penicillin G, 50 ug ml^−1 streptomycin and 1.0 ug mL^−1 Fungizone® (complete medium). Only cells from passages 1-10 were used for experiments. A stock of cells, passages 1-4, were maintained at −86° C. to initiate the experimental cultures. Cultures were maintained at 37° C. in a 5% CO2 humidified atmosphere (Forma Scientific, Marietta, Ohio). […] Cell counts were performed using a particle counter (Model ZM, Coulter Electronics, Hialeah, Fla.).
(§2) Photoradiation of Cell Cultures: Cell lines, AUXB1 or CR1R12, were seeded on 96-well plates in 200 μL/well α-MEM at 1-4×10^4 cells/well. Rhodamine analogues were then added directly to the cell culture medium at various concentrations and incubated for 2 h in the dark as above. The medium was then removed and 200 μL α-MEM minus FBS and phenol red (clear medium) were added to each well. One plate, with the lid removed, was then exposed to 350-750 nm light delivered at 1.4 mW cm^−2 for 1 h (5.0 J cm^−2) from a filtered halogen source while a parallel plate was kept in the dark during the irradiation period. Immediately following irradiation the clear medium was replaced with complete medium and the monolayers were incubated for an additional 24-h period. Subsequently, cells were trypsinized and counted using the Coulter counter to determine cell viability. Determination of cell viability by cell counting is performed according to an earlier method. […] Briefly, cells that detach from the surface of a culture plate stain with trypan blue, i.e. are nonviable, while all cells that remain attached to the surface exclude trypan blue, 100% viable. We were unable to seed new culture plates with cells that detached from the surface after treatment, while cells that remained attached after treatment continued to grow and multiply. Thus, we count only those cells that remain attached to the culture plate surface after treatment and compare those numbers with the cell numbers obtained from control cells, cells not exposed to either dye or light. Data are then expressed as percent cell viability, treated cell counts/control cell counts.
Data set [9] has as its system AUXB1 cells.
Description: as §1
Photoradiation of Cell Cultures: Cell lines, AUXB1 or CR1R12, were seeded on 96-well plates in 200 μL/well α-MEM at 1-4×10^4 cells/well. Rhodamine analogues were then added directly to the cell culture medium at various concentrations and incubated for 2 h in the dark as above. The medium was then removed and 200 μL α-MEM minus FBS and phenol red (clear medium) were added to each well. […] Subsequently, cells were trypsinized and counted using the Coulter counter to determine cell viability. […] Data are then expressed as percent cell viability, treated cell counts/control cell counts.
The nature of data set [10]: Reduction potential by cyclic voltammetry. Conditions: in CH2Cl2, 0.2N Bu4NBF4; vs. ferrocene/ferrocinium couple (E° = +0.40 V).
Data set [11] can be described thus: Absorption and fluorescence maxima in MeOH. Conditions: for Bathochromic shift in λmax: compared to TMR-O; for Fluorescence maximum λF: excitation at 532 nm.
The test system of data set [12] is CR1R12 cells. The data set is described as follows: Photoradiation of cell cultures (cell viability), CR1R12. Conditions: for Phototoxicity (cell viability): 5.0 J cm−2 light.
Description: as §1, §2
The target of data set [13] is Pgp (Homo sapiens, UniProt P08183). The conditions noted are these: cited from earlier work.
In data set [14] the test system is Pgp-expressing CR1R12 cells. The data set is described as follows: Dye uptake into cell monolayers, CR1R12. It counts as cell-based, Chinese hamster. The conditions noted are these: for Effect of verapamil on intracellular dye uptake: dye 1×10−5 M, 7×10−6 M verapamil 2 h before dye.
For data set [15], the system named is AUXB1 cells. The data set is described as follows: Dye uptake into cell monolayers, AUXB1. It counts as cell-based, Chinese hamster. Conditions: dye 1×10−5 M for 1 h, 7×10−6 M verapamil.
A short description of data set [16]: n-Octanol/water partition coefficient. Conditions: pH-6 phosphate buffer as the aqueous phase.
Setting [17] is: over a wide range of concentrations.

Sequence of Pgp (P08183 whole entry): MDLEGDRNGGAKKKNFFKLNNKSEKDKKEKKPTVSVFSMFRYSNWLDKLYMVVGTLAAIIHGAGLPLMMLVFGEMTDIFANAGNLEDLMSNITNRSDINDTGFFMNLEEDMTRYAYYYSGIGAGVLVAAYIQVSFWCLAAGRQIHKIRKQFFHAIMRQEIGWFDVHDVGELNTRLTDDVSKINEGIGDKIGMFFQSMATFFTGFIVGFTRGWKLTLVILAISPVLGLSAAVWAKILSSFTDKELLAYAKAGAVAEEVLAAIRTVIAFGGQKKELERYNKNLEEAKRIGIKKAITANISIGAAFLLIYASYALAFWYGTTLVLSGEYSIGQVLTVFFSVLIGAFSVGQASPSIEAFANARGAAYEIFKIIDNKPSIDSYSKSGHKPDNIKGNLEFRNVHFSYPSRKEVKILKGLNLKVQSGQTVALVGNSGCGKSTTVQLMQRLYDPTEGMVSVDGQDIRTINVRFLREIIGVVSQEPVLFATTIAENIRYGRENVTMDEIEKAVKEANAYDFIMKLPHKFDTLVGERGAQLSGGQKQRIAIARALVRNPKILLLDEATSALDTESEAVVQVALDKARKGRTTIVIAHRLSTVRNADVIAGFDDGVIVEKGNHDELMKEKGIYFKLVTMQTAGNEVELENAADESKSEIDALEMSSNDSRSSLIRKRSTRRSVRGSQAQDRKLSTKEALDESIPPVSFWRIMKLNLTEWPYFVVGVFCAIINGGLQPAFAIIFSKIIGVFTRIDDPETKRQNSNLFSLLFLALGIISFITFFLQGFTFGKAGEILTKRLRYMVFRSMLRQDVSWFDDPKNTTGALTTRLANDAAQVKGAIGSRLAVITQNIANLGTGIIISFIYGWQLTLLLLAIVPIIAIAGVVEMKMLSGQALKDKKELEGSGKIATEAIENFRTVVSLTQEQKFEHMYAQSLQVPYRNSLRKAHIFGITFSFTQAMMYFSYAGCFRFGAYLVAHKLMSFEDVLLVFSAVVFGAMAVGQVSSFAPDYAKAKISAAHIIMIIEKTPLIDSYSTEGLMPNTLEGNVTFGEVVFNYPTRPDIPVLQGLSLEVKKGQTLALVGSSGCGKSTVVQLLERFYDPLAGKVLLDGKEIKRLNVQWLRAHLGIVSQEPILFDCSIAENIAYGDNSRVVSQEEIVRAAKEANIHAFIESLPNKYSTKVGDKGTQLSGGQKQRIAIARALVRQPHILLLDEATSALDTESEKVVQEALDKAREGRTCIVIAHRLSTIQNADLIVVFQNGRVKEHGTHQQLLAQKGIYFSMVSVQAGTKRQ
Sequence of Pgp in CR1R12 cells (P21448 whole entry): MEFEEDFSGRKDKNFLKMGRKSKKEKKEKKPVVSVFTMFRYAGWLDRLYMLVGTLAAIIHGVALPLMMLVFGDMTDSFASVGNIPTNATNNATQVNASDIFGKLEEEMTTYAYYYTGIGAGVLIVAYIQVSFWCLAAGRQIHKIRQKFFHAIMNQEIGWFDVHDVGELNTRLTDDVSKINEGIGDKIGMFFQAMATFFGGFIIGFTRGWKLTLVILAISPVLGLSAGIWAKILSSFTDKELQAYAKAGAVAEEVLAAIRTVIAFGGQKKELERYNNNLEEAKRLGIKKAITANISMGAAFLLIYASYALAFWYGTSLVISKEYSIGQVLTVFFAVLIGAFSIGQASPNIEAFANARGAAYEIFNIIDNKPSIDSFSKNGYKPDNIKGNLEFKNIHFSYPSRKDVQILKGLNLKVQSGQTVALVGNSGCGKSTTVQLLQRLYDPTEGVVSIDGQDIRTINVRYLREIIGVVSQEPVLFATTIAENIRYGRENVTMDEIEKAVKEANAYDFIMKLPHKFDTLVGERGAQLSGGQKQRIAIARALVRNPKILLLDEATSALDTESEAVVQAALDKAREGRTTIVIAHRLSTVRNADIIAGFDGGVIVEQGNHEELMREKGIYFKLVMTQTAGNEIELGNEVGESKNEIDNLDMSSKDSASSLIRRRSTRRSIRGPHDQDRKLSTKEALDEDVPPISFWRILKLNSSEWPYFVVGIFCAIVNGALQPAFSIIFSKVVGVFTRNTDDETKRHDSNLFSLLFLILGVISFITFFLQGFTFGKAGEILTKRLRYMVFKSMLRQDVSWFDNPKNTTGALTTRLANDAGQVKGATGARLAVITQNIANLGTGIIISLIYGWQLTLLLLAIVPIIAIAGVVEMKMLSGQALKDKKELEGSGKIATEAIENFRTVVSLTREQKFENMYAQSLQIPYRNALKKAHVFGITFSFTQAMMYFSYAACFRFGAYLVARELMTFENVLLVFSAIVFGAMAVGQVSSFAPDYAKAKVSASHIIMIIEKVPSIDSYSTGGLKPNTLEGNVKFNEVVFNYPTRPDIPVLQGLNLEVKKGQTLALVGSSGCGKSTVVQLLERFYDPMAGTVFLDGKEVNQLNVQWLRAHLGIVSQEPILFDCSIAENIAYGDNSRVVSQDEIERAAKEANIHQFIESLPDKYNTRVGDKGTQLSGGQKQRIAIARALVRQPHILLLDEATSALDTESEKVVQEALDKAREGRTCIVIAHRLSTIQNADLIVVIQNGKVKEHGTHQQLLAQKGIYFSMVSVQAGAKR

For the compound `CN(C)c1ccc2[se+]c3ccc(N(C)C)cc3c(-c3ccccc3)c2c1.[Cl-]` [TMR-Se, 2,7-Bis-N,N-dimethylamino-9-phenylselenoxanthylium Chloride], the “Quantum yield for generation of singlet oxygen φ(1O2) ± sd” value in data set [1] was 0.87 and 0.87 ± 0.01. In [2], the “Radiative lifetime τrad” value is “approximately 50 ps”; the “Quantum yield for fluorescence φF ± sd” value was 0.009 and 0.009 ± 0.001. Also, in [3] (1 μM, 2 J cm−2 light, 20% hematocrit red cells), the “Inactivation of extracellular VSV” value was more than 7.4 log10. For the same compound, the “Inactivation of extracellular VSV” value in [3] (5 μM, 2 J cm−2 light, 45% hematocrit red cells) is recorded as more than 7.4 log10. Moreover, the “Inactivation of intracellular VSV” value in data set [4] (under the TMR-Se conditions of b117 (1-5 μM, 2 J cm−2)) is recorded as 0.5 log10. Also, in data set [5], the “Change in intracellular accumulation of CAM” value was “no significant change”. Also, the CAM uptake entry in data set [6] is given as “virtually abolished CAM uptake”. For the same compound, the “n-Octanol/water partition coefficient log P” value in data set [7] stood at 1.1. In addition, the “Cell viability, dye alone in the dark” value in [8] is “no significant loss in cell viability”. Also, the “Cell viability, dye alone in the dark” value in data set [9] is “no significant loss in cell viability”. Also, in data set [9] (AUXB1 cells, light, with or without 7×10−6 M verapamil), the “Phototoxicity (cell viability)” value is “equally susceptible to phototoxicity”. In data set [10], the “Reduction potential E°” value is listed as −0.77 V. Moreover, in data set [11], the “Absorption maximum λmax” value was determined as 582 nm, the “log ε at λmax” value amounted to 4.84, the “Bathochromic shift in λmax” value turned out to be 30 nm and the “Fluorescence maximum λF” value was 608 nm. In data set [12] (after 2 h 7×10−6 M verapamil), the “Phototoxicity (cell viability)” value is listed as “significant cytotoxicity; also recorded: significant phototoxicity”.
Take `COC(=O)c1ccccc1-c1c2ccc(=N)cc-2oc2cc(N)ccc12` [Rh123, rhodamine 123]: in [13], the “Inhibition of Pgp function” value is reported as “do not inhibit Pgp function” and the Pgp transport substrate entry is on record as “transport substrates for Pgp”.
`CN(C)c1ccc2sc3ccc(N(C)C)cc3c(=O)c2c1` [compound 2]: the Extracellular virucidal activity in data set [3] (setting [17]) is on record as less than 2.5 log10. In [4] (setting [17]), this compound had an Intracellular virucidal activity of less than 0.5 log10.
For `CN(C)c1ccc2[s+]c3ccc(N(C)C)cc3c(-c3ccccc3)c2c1.[Cl-]` [TMR-S, 2,7-Bis-N,N-dimethylamino-9-phenylthioxanthylium Chloride], in data set [1], the “Quantum yield for generation of singlet oxygen φ(1O2) ± sd” value was 0.21 and 0.21 ± 0.02. Further, in data set [2], the “Radiative lifetime τrad” value turned out to be 1.5±0.1 ns; the “Quantum yield for fluorescence φF ± sd” value was 0.44 and 0.44 ± 0.01. Also, the “Inactivation of extracellular VSV” value in [3] (5 μM, 7.4 J cm−2 light, 20% hematocrit red cells) is “More than 8 log10”. In addition, in [4] (50 μM and 7.4 J cm−2), the “Inactivation of intracellular VSV” value is listed as 1.5 log10. In addition, the “Increase in dye uptake in the presence of verapamil” value in data set [14] (dye 1×10−5 M for 1 h, 7×10−6 M verapamil) is on record as “more than 3 fold”. Also, the “Effect of verapamil on intracellular dye uptake” value in [14] was “significantly enhanced”. Moreover, the “Intracellular dye accumulation in absence vs presence of verapamil” value in data set [15] is given as “similar”. In addition, the “Change in intracellular accumulation of CAM” value in [5] is “no significant change”. In addition, the CAM uptake result in data set [6] is listed as “virtually abolished CAM uptake”. Moreover, the “n-Octanol/water partition coefficient log P” value in data set [7] was determined as 1.2. Besides, the “Cell viability, dye alone in the dark” value in [8] was “no significant loss in cell viability”. In addition, the “Reduction potential E°” value in data set [10] is given as −0.79 V. Further, in data set [11], the “Absorption maximum λmax” value was found to be 571 nm, the “log ε at λmax” value is reported as 4.70, the “Bathochromic shift in λmax” value is given as 20 nm and the “Fluorescence maximum λF” value is listed as 599 nm. In data set [12] (after 2 h 7×10−6 M verapamil), the “Phototoxicity (cell viability)” value is listed as “significant cytotoxicity”.
As for `CN(C)c1ccc2c(-c3ccccc3)c3ccc(=[N+](C)C)cc-3oc2c1` [TMR-O, Tetramethylrosamine, reference compound], the “Quantum yield for generation of singlet oxygen φ(1O2) ± sd” value in data set [1] was 0.08 and 0.08 ± 0.01. Further, in [2], the “Radiative lifetime τrad” value is reported as 2.1±0.1 ns; the “Quantum yield for fluorescence φF ± sd” value is 0.84 and 0.84 ± 0.01. In addition, the “Effect of verapamil on intracellular dye uptake” value in data set [14] is reported as “verapamil enhances the uptake; also recorded: significantly enhanced”. Further, the “Intracellular dye accumulation in absence vs presence of verapamil” value in [15] was “similar”. For the same compound, in data set [13], the “Inhibition of Pgp function” value is on record as “do not inhibit Pgp function” and the Pgp transport substrate entry is given as “transport substrates for Pgp”. Besides, the “n-Octanol/water partition coefficient log P” value in data set [16] is 1.5. Also, the “Reduction potential E°” value in data set [10] is −0.94 V. Also, in data set [11], the “Absorption maximum λmax” value came out at 552 nm, the “log ε at λmax” value came out at 4.92 and the “Fluorescence maximum λF” value was 575 nm. Besides, the “Phototoxicity (cell viability)” value in [12] (after 2 h 7×10−6 M verapamil) is reported as “no significant phototoxicity”. Moreover, the “Phototoxicity (cell viability)” value in data set [12] (without verapamil) is listed as “no significant phototoxicity”. Moreover, the “Cell viability, dye alone in the dark” value in data set [12] (same conditions without light) is given as “no significant loss in cell viability”.
